Measured values reported in patent US20220226342A1, “COMPOSITIONS AND METHODS OF TREATING LIVER CANCERS” (The Johns Hopkins University, priority 2019, published 2022).

Columns and labels:
PDX50 = test: HCC patient derived xenograft model PDX50
Text: P<0.001. Error bars represent Mean±standard deviation. Not significant (NS).
The second model, PDX50, was established by directly implanting pieces of the fresh human HCC tumor into NSG mice. After initial implantation, PDX50 is perpetuated similarly to PDX26-3. […] PDX50 is less aggressive—mice continue to be active, to eat and function normally, in spite of very large tumors. Therefore, PDX50 is not ideal for survival determinations.

40 HCC PDO lines = test: 10 μM drug screening, cell viability at 96 h (CellTiter-Glo); assay type: cell-based, human
Method: FIG. 2A-2E. 10 μM drug screening and IC50 calculation across 40 PDOs from 20 HCC patients. (2A). 10 μM drug screening of omacetaxine and sorafenib, regorafenib, lenvatinib and cabozantinib on 40 PDOs derived from 20 HCC patients. X axis—the 40 PDO lines, Y axis—Cell viability. (2B). IC50 curve of 40 PDO lines, x-axis—omacetaxine dose, Y axis—Relative cell viability. (2C). […] (2D). IC50 distribution of 40 HCC PDOs. X axis—PDO lines, Y axis—IC50 number of omacetaxine for each PDO.
As readout of drug effectiveness, cell viability at 96 hours (h) was measured. White light microscopy images of one of the HCC PDO lines across 129 drugs was prepared. In FIG. 2E, each panel represents the image collected at 96 hours after treatment with each drug, at a concentration of 10 μM. […] To quantify survival, we implemented CellTiter-Glo, a luminescent cell viability assay. A total of 129 readings (one for each drug) was obtained for each of the 40 PDO lines, for a total of […] data points. […] Next, the inventors contrasted the survival of the […] HCC PDO lines when treated with omacetaxine versus current FDA approved drugs for HCC.

[1] = FDA approved dosage, cited from earlier work
6 HCC PDO lines [2] = test: FACS analysis of Ki67 protein; assay type: cell-based, human; settings: all 6 HCC PDO lines tested
Method: (§1) FIG. 4A-4D. Proliferation assay of HCC PDOs treated with omacetaxine in vitro. […] (4B and 4D).Ki67 expression from 6 HCC PDO lines treated with omacetaxine were analyzed with flow cytometry. […] The effects on proliferation were assessed to elucidate the omacetaxine mechanisms of action. […] To further understand the effects of omacetaxine on cancer cell proliferation and cell cycle, the inventors performed FACS analysis of Ki67 protein. Ki-67 is a nuclear protein expressed in proliferating cells (in all phases of the cell cycle except G0)^22,23. Furthermore, the higher expression of Ki67 has been linked to poorer disease free survival and overall survival in HCC^24. […] As caspase 3 is a key molecule in apoptosis, the inventors measured its activated (cleaved) fragment.

beta-catenin = test: oncoprotein level by FACS at 96 h in 6 HCC PDO lines; assay type: cell-based, human
Text: (§2) FIG. 3A-3H. Mechanism of Omacetaxine action on different HCC patient derived organoids lines. (3A). […] (3B). […] (3C) The mean fluorescence intensity ratio reflected protein synthesis rate of the plots data in (a). (3D-3H).
(§3) Select oncoproteins, such as MYC, beta-catenin, Cyclin D1, XIAP and MET are short half-life proteins^20, 26, 27.

Cyclin D1 = test: as above; assay type: cell-based, human
Text: as §2, §3

XIAP = test: as above; assay type: cell-based, human
Text: as §2, §3

MYC = test: as above; assay type: cell-based, human
Text: as §2, §3

MET = test: as above; assay type: cell-based, human
Text: as §2, §3

6 HCC PDO lines [3] = test: cleaved caspase 3 flow cytometry; assay type: cell-based, human
Method: as §1, with “5A-5E. Apoptosis analysis” for “4A-4D. Proliferation assay”, “vitro. Organoids were plate on 24 well plate, omacetaxine at 700 μM, 350 μM were added to cell culture medium for 96 h. Then cells were collected and subjected to the analysis below. (5A and 5C). Flow cytometry analysis of 4 HCC PDOs apoptosis using Annexin V/7AAD assay.” for “vitro.”, “(5B” for “(4B”, “5D). Flow cytometry analysis of cleaved caspase 3” for “4D).Ki67”, “of omacetaxine treated” for “from 6”, “PDOs.” for “PDO lines treated with omacetaxine were analyzed with flow cytometry.”

PDX26-3 = system: PDX26-3
Method: FIG. 7A-7I. […] Significance was determined with log rank test. […] Error bars represent Mean±standard deviation. […] (7J).
Patient derived xenograft (PDX) models of human cancer are well documented to recapitulate primary tumor biology, as well as response to treatment^28, 29. Two PDX models from HCC patients were established in the inventors' lab with the purpose of creating a platform for further validation of drug leads. The first model, PDX26-3, was established by subcutaneous injection of HCC PDO cells into NOD SCID-IL2R-γ chain-deficient mice (NSG, Jackson Lab). More specifically, PDX26-3 is established from PDO26-3 cells at passage 3. After the initial PDX establishment, the model is perpetuated by implantation of pieces of tumors from current generation PDX mice into the next (as described in Materials and Methods).

6 HCC PDO lines [4] = test: FACS analysis of BrdU incorporation (proliferation); assay type: cell-based, human
6 HCC PDO lines [5] = test: Annexin V / 7AAD flow cytometry apoptosis assay; assay type: cell-based, human; settings: 700 μM, 350 μM, 96 h
Method: as §1, with “5A-5E. Apoptosis analysis” for “4A-4D. Proliferation assay”, “vitro. Organoids were plate on 24 well plate, omacetaxine at 700 μM, 350 μM were added to cell culture medium for 96 h. Then cells were collected and subjected to the analysis below. (5A and 5C).” for “vitro.”, “(5B” for “(4B”, “5D). Flow cytometry analysis of cleaved caspase 3” for “4D).Ki67”, “of omacetaxine treated” for “from 6”, “PDOs.” for “PDO lines treated with omacetaxine were analyzed with flow cytometry.”

COC(=O)C[C@](O)(CCCC(C)(C)O)C(=O)O[C@@H]1C(OC)=C[C@]23CCCN2CCc2cc4c(cc2[C@H]13)OCO4 [omacetaxine, omacetaxine mepusuccinate]
body mass of mice, treatment vs. control group (PDX50): no difference in the body mass
tumor growth (PDX50; PDX50 mice, treatment applied directly into the tumor): halting of tumor growth
survival of HCC PDO lines versus FDA approved HCC drugs (sorafenib, lenvatinib, regorafenib, cabozantinib) (40 HCC PDO lines): significantly more effective than first line HCC drugs (sorafenib and lenvatinib) and second line HCC drugs (regorafenib and cabozantinib
effectiveness in screen (growth inhibited by ≥50%) (40 HCC PDO lines; 96 h): effective across all 40 HCC PDO lines
average HCC PDO survival (40 HCC PDO lines; 96 h, across all 40 HCC PDO lines): 4.2%
infectious complications, share of patients [1]: approximately 5%
main side effects ([1]; patients): hematologic depletion (thrombocytopenia, anemia, and neutropenia) and diarrhea
expression of Ki67 (6 HCC PDO lines [2]): reduces the expression of Ki67
beta-catenin level (beta-catenin): inhibited
Cyclin D1 level (Cyclin D1): inhibited
XIAP level (XIAP): inhibited
MYC level (MYC): inhibited
MET level (MET): inhibited
cleaved caspase 3 (6 HCC PDO lines [3]): induced
size of the tumors at the end of the treatment (PDX26-3; PDX26-3, day 30, vs control): statistically significant difference
weight of the tumors at the end of the treatment (PDX26-3; PDX26-3, day 30, vs control): statistically significant difference
increase in survival (PDX26-3; PDX26-3 mice, statistically significant): approximately 100%
tumor growth (PDX26-3; PDX26-3 mice, treatment applied directly into the tumor): halting of tumor growth
body mass of mice, treatment vs. control group (PDX26-3; mouse, in vivo): no difference in the body mass
BrdU incorporation in newly synthetized DNA (proliferation) (6 HCC PDO lines [4]): inhibited incorporation
early / late apoptosis (Annexin V, 7AAD) (6 HCC PDO lines [5]): either early apoptosis, or late apoptosis, or both were increased
